Data published in patent publication US20110039763A1, “TARGETED ANTIMICROBIAL MOIETIES” (C3 JIAN, INC., priority 2009, published 2011).
Entries after “also recorded” stand apart in the source; their conditions may differ.

How the values were obtained:
microorganisms [1] = assay: Peptide activities: targeting/binding, antimicrobial, growth or phenotype altering (Tables 7, 8); type: cell-based; conditions: peptides having multiple activities
microorganisms [2] = assay: Targeting peptide binding to target microorganisms (Tables 3, 10, 12); conditions: microorganism(s) the targeting peptide binds, preferably 1x PBS
microorganisms [3] = assay: Morphology, biofilm and growth disrupting peptides (Table 5); type: cell-based; set-up: key: A: Peptide aggregates; B: Less hyphal formation; Clumps; Diffuse clumps and small polyps; F: Diffuse growth; H: Thin; I: Growth inhibition; Microcolony formation; Rippled; Small polyps; Thick; W: Halo formation on top, microlonies on bottom
Text: In certain embodiments peptides that induce alterations in phenotype or other biological activities can also be used as antimicrobial effector moieties.

[4] = binding in aqueous buffers varied with peptide solubility
[5] = binding in aqueous buffers that varied with peptide solubility

LNFRAENKILEKIHISLIDTVEGSA [PF-575]
Activities (microorganisms [1]): G B
Target(s) (microorganisms [2]; [4]): M. luteus and E. coli and C. albicans and MRSA and S. pneumoniae and E. faecalis and C. jeikeium
Organism, effect (microorganisms [3]; C. jeikeium): C. jeikeium (A)
Organism, effect (microorganisms [3]; C. jejuni): C. jejuni (R)
Organism, effect (microorganisms [3]; P. aeruginosa): P. aeruginosa (A)
Organism, effect (microorganisms [3]; S. pneumoniae): S. pneumoniae (A)

PF-034: peptide having multiple activities (EPKKKHFPKMESASSEP; Peptide with targeting and/or antimicrobial activity)
Activities (microorganisms [1]): G B
Target(s) (microorganisms [2]; [5]): M. luteus
Organism, effect: S. epidermidis (microorganisms [3]; S. epidermidis): S. epidermidis (A)

PF-453: peptide having multiple activities (IIQDIAHAFGY; Peptide with targeting and/or antimicrobial activity)
Activities (microorganisms [1]): G B
Target(s) (microorganisms [2]; [4]): M. luteus; also recorded: E. coli; also recorded: P. aeruginosa; also recorded: S. pneumoniae; also recorded: E. faecalis; also recorded: C. jeikeium; also recorded: C. jejuni
Organism, effect (microorganisms [3]; E. coli): E. coli (C)
Organism, effect (microorganisms [3]; MRSA): MRSA (C)
Organism, effect (microorganisms [3]; S. epidermidis): S. epidermidis (C)
Organism, effect (microorganisms [3]; S. pneumoniae): S. pneumoniae (C)

PF-273: peptide having multiple activities (chain 1 LVGALLIFVALIYMVLKGNADKN; chain 2 LVGALLIFVALIYMVLKGNADKN; Peptide with targeting and/or antimicrobial activity)
Activities (microorganisms [1]): G B
Target(s) (microorganisms [2]; [4]): S. epidermidis; also recorded: M. luteus; also recorded: P. aeruginosa; also recorded: A. baumannii
Organism, effect: S. epidermidis (microorganisms [3]; S. epidermidis): S. epidermidis (C)

PF-564: peptide having multiple activities (TIILNDQINSLQERLNKLNAETDRR; Peptide with targeting and/or antimicrobial activity)
Activities (microorganisms [1]): G B
Target(s) (microorganisms [2]; [4]): S. epidermidis; also recorded: C. albicans; also recorded: S. pneumoniae; also recorded: C. jeikeium
Organism, effect (microorganisms [3]; B. subtilis): B. subtilis (D)
Organism, effect (microorganisms [3]; C. jeikeium): C. jeikeium (R)
Organism, effect (microorganisms [3]; C. jejuni): C. jejuni (R)
Organism, effect (microorganisms [3]; MRSA): MRSA (C)

KKFKIFVIINWFYHKYIILNFEENF [PF-C085]
Activities (microorganisms [1]): G B
Target(s) (microorganisms [2]; [4]): A. naeslundii; also recorded: F. nucleatum; also recorded: P. gingivalis; also recorded: S. mutans; also recorded: T. denticola
Organism, effect (microorganisms [3]; S. mutans): S. mutans (F)

PF-C143: peptide having multiple activities (chain 1 VVFGGGDRLV; chain 2 VVFGGGDRLV; Peptide with targeting and/or antimicrobial activity)
Activities (microorganisms [1]): G B
Target(s) (microorganisms [2]; [4]): A. naeslundii; also recorded: F. nucleatum; also recorded: P. gingivalis; also recorded: S. mutans; also recorded: T. denticola
Organism, effect (microorganisms [3]; F. nucleatum): F. nucleatum (C)

PF-476: peptide having multiple activities (WADAQYKLCENCSE; Peptide with targeting and/or antimicrobial activity)
Activities (microorganisms [1]): G B
Target(s) (microorganisms [2]; [4]): M. luteus; also recorded: P. mirabilis; also recorded: C. albicans; also recorded: S. pneumoniae; also recorded: E. faecalis; also recorded: C. jeikeium; also recorded: C. jejuni
Organism, effect (microorganisms [3]; S. pneumoniae): S. pneumoniae (H)

PF-423: peptide having multiple activities (chain 1 AGKKERLLSFREQFLNKNKKK; chain 2 AGKKERLLSFREQFLNKNKKK; Peptide with targeting and/or antimicrobial activity)
Activities (microorganisms [1]): G B
Target(s) (microorganisms [2]; [4]): S. epidermidis; also recorded: M. luteus; also recorded: E. coli; also recorded: S. pneumoniae; also recorded: E. faecalis; also recorded: C. jeikeium
Organism, effect (microorganisms [3]; S. pneumoniae): S. pneumoniae (H)

PF-043: peptide having multiple activities (MIKNETAYQMNELLVIRSAYAK; Peptide with targeting and/or antimicrobial activity)
Activities (microorganisms [1]): G B
Target(s) (microorganisms [2]; [5]): M. luteus; also recorded: C. jejuni
Organism, effect: C. jeikeium (microorganisms [3]; C. jeikeium): C. jeikeium (A)
Organism, effect: M. luteus (microorganisms [3]; M. luteus): M. luteus (C)
Organism, effect: MRSA (microorganisms [3]; MRSA): MRSA (R)
Organism, effect: S. epidermidis (microorganisms [3]; S. epidermidis): S. epidermidis (D)

LMFFSENMDKRDTLSGKFRYFAGSKVIKLMNWLSENGK [PF-226]
Activities (microorganisms [1]): G B
Target(s) (microorganisms [2]; [4]): A. baumannii
Organism, effect: M. luteus (microorganisms [3]; M. luteus): M. luteus (T)
Organism, effect: S. epidermidis (microorganisms [3]; S. epidermidis): S. epidermidis (C)

PF-595: peptide having multiple activities (chain 1 LQNKIYELLYIKERSKLCS; chain 2 LQNKIYELLYIKERSKLCS; Peptide with targeting and/or antimicrobial activity)
Activities (microorganisms [1]): G B
Organism, effect (microorganisms [3]; C. jejuni): C. jejuni (D)
Organism, effect (microorganisms [3]; E. coli): E. coli (C)
Organism, effect (microorganisms [3]; E. faecalis): E. faecalis (D)
Organism, effect (microorganisms [3]; MRSA): MRSA (D)
Organism, effect (microorganisms [3]; S. epidermidis): S. epidermidis (C)
Organism, effect (microorganisms [3]; S. pneumoniae): S. pneumoniae (R)

PF-454: peptide having multiple activities (MSVFVPVTNIFMFIMSPIFNVNLLHFKVYI; Peptide with targeting and/or antimicrobial activity)
Activities (microorganisms [1]): G B
Organism, effect (microorganisms [3]; E. coli): E. coli (R)
Organism, effect (microorganisms [3]; E. faecalis): E. faecalis (C)
Organism, effect (microorganisms [3]; MRSA): MRSA (C)
Organism, effect (microorganisms [3]; P. aeruginosa): P. aeruginosa (H)
Organism, effect (microorganisms [3]; S. epidermidis): S. epidermidis (C)
Organism, effect (microorganisms [3]; S. pneumoniae): S. pneumoniae (R)

PF-619: peptide having multiple activities (chain 1 WSRVPGHSDTGWKVWHRW; chain 2 WSRVPGHSDTGWKVWHRW; Peptide with targeting and/or antimicrobial activity)
Activities (microorganisms [1]): G B
Organism, effect (microorganisms [3]; E. coli): E. coli (C)
Organism, effect (microorganisms [3]; MRSA): MRSA (M)
Organism, effect (microorganisms [3]; S. epidermidis): S. epidermidis (M)
Organism, effect (microorganisms [3]; S. pneumoniae): S. pneumoniae (C)

B1: PF-S003: peptide having multiple activities (peptide)
chain 1: ALALLKQDLLNFEGRGRIITSTYLQFNEGCVP
chain 2: ALALLKQDLLNFEGRGRIITSTYLQFNEGCVP
modifications: Peptide with targeting and/or antimicrobial activity
Activities (microorganisms [1]): G B
Organism, effect (microorganisms [3]; B. subtilis): B. subtilis (A)
Organism, effect (microorganisms [3]; C. albicans): C. albicans (A)
Organism, effect (microorganisms [3]; C. jeikeium): C. jeikeium (D)
Organism, effect (microorganisms [3]; C. jejuni): C. jejuni (D)
Organism, effect (microorganisms [3]; M. luteus): M. luteus (R)
Organism, effect (microorganisms [3]; MRSA): MRSA (M)
Organism, effect (microorganisms [3]; P. aeruginosa): P. aeruginosa (A)
Organism, effect (microorganisms [3]; S. epidermidis): S. epidermidis (R)
Organism, effect (microorganisms [3]; S. pneumoniae): S. pneumoniae (D)

B2: PF-612: peptide having multiple activities (peptide)
chain 1: GTTLKYGLERQLKIDIHPEITIINLNGGADEFAKL
chain 2: GTTLKYGLERQLKIDIHPEITIINLNGGADEFAKL
modifications: Peptide with targeting and/or antimicrobial activity
Activities (microorganisms [1]): G B
Organism, effect (microorganisms [3]; E. coli): E. coli (C)
Organism, effect (microorganisms [3]; M. luteus): M. luteus (A)
Organism, effect (microorganisms [3]; MRSA): MRSA (C)
Organism, effect (microorganisms [3]; P. mirabilis): P. mirabilis (C)
Organism, effect (microorganisms [3]; S. epidermidis): S. epidermidis (C)
Organism, effect (microorganisms [3]; S. mutans): S. mutans (F)
Organism, effect (microorganisms [3]; S. pneumoniae): S. pneumoniae (C)
